Columns and labels:
[1] = tested on: CaSki human cervical carcinoma cells; assay: in vitro cytotoxicity: [3H] leucine incorporation (protein synthesis) in CaSki cells
Description: One way to evaluate the in vitro cytotoxic activities of a proactive compound is by incubating the tested compound with cancerous cells in serum at 37° C. for a certain period of time. After incubation, the cells can be washed and pulsed with [^3 H] leucine in leucine-free medium for another period of time. The radioactivity of trichloroacetic acid-precipitated protein, an indication of the level of protein synthesis of the cell, can then be measured.
CaSki human cervical carcinoma cells were plated overnight in 96-well microtiter plates at 18,000 cells/well. Serial dilution of (i) compound 17 alone, (ii) compound 22 with β-glucuronidase, and (iii) compound 22 alone, in medium containing 5% fetal calf serum were added to cells for 96 hours at 37° C. Cells were subsequently washed once with sterile PBS, and then pulsed for 2 hours with [^3 H] leucine (1 μCi/well) in leucine-free medium. The radioactivity of trichloroacetic acid-precipitated protein was measured in a Beckman LS 6000 series liquid scintillation counter.

[2] = stability of the proactive compound in 95% human plasma at 37° C., HPLC; format: in vitro ADME; conditions: 145 μM (100 μg/ml), CO2 atmosphere, up to 48 hours, as compared with compound 23
Description: The stability of the proactive compound in serum can be evaluated by using high performance liquid chromatography (HPLC) analysis. […] Aliquots are taken out from the serum solution after every pre-designed period of time, e.g., every other hour. The proteins present in serum are precipitated, acidified, and dried under reduced pressure. The dried compound is dissolved in the HPLC buffer and then analyzed by HPLC.
(§1) 20 μl samples made from compounds 22 and 17 (moiety (3) of compound 22) were injected onto a Hypersil column (RP-18, 4.6×250 mm, 5 μm) with 45% methanol and 25 mM phosphate buffer (pH 2.5) as mobile phase at a flow rate of 1 ml/min. Eluted components were detected by fluorescence (excitation: 397 nm, emission: 482 nm) on a Gilson fluorometer. Peak areas were analyzed with Beckman system Gold software. The retention times for compound 17 and compound 22 were 9.5 and 15.8 minutes, respectively.

[3] = molecular target: E. coli β-glucuronidase (Escherichia coli, UniProt P05804); assay: cleavage of compound 22 by β-glucuronidase in βG buffer, HPLC; format: biochemical; conditions: E. coli β-glucuronidase 1 μg/ml, 37° C.
Chain of E. coli β-glucuronidase (P05804 whole entry): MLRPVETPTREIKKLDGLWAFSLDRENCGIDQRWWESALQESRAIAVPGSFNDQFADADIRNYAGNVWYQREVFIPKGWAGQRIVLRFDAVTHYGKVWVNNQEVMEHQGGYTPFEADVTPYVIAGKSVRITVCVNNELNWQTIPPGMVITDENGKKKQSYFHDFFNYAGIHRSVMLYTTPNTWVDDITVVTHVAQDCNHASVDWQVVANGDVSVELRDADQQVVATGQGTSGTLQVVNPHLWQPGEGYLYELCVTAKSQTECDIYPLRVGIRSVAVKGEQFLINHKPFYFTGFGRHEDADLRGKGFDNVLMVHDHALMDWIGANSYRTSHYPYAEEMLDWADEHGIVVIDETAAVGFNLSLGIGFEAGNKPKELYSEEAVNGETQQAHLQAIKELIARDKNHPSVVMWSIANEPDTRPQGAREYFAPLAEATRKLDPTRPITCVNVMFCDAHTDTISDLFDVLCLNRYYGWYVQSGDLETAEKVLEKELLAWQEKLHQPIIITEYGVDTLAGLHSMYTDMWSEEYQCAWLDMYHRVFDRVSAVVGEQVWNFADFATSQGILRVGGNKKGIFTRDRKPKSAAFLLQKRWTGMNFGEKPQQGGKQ
Description: The proactive compound can also be tested as to its ability to be cleaved by β-glucuronidase. Specifically, the enzyme and the tested compound are both added to […]. Aliquots are then taken out and evaluated in a similar fashion as described above.
as §1
500 μl of compound 22 (116 μM) in βG buffer (100 mM acetic acid, 50 mM bis-tris, 50 mM triethanolamine, pH 7.0) was incubated with E. coli β-glucuronidase (1 μg/ml) at 37° C. Aliquots (30 μl) withdrawn after 0, 1, 2, 3, and 5 minutes was mixed with 300 μl of ethyl acetate, and acidified by addition of 12 mM phosphoric acid (270 μl). […] The recovery of compounds 22 and 17 from βG buffer […] were about 90% and 80%, respectively. Samples were suspended in 150 μl of mobile phase (45% methanol/25 mM phosphate buffer, pH 2.5) and analyzed by HPLC.

Which “cytotoxicity relative to compound 17” value ([1]; compound alone (no β-glucuronidase)) does the source give for CC[C@@]1(O)C(=O)OCc2c1cc1n(c2=O)Cc2cc3c(NC(=O)OCc4ccc(O[C@@H]5O[C@H](C(=O)O)[C@@H](O)[C@H](O)[C@H]5O)cc4)cccc3nc2-1 [Compound 22] here?
Its value is “much less cytotoxic than compound 17”.

What about the “change of level of protein synthesis” value ([1]; compound alone (no β-glucuronidase), 100 nM, 96 hours, 37° C., 5% fetal calf serum) of the same molecule?
The value was “did not change”.

And the “cytotoxicity relative to compound 17” value ([1]; upon activation by glucuronidase)?
The value was “almost as cytotoxic as compound 17”.

What about the “decrease of level of protein synthesis” value ([1]; with β-glucuronidase, 100 nM, 96 hours, 37° C., 5% fetal calf serum) of the same molecule?
The value was ~4 fold.

And the “half life in serum” value [2]?
The value was “surprisingly long half life in serum”.

And the “conversion into moiety (3) upon activation by glucuronidase” value [3]?
The value was “converted into its moiety (3), i.e., compound 17”.

And the “absorbance of compound 22 after incubation with β-glucuronidase” value ([3]; after 3 minutes, compound 22 116 μM, βG buffer pH 7.0)?
Its value is “almost undetectable”.

Which “decrease of level of protein synthesis” value ([1]; compound alone, 100 nM, 96 hours, 37° C., 5% fetal calf serum) does the source give for CC[C@@]1(O)C(=O)OCc2c1cc1n(c2=O)Cc2cc3c(N)cccc3nc2-1 [Compound 17, reference compound] here?
The value was ~4 fold.

And the “absorbance of compound 17 released from compound 22 by β-glucuronidase” value ([3]; 0-5 minutes, compound 22 116 μM, βG buffer pH 7.0)?
The value was “increased in the first three minutes and reached a steady level after the third minute”.

Source: US6043367A, “Proactive antitumor compounds” (priority 1998, dated 2000)
